Here are results for 3 compounds from patent publication US11992536B2, “Dual-targeting compound and preparation method and application thereof” (YANTAI LANNACHENG BIOTECHNOLOGY CO., LTD., priority 2022, dated 2024).

One assay concerns the target T1, FAP (Homo sapiens, UniProt Q12884).
T1 construct: expressed in transfected cells; host or cells: HT1080-FAP tumor cells
T1 sequence (Q12884 1-760): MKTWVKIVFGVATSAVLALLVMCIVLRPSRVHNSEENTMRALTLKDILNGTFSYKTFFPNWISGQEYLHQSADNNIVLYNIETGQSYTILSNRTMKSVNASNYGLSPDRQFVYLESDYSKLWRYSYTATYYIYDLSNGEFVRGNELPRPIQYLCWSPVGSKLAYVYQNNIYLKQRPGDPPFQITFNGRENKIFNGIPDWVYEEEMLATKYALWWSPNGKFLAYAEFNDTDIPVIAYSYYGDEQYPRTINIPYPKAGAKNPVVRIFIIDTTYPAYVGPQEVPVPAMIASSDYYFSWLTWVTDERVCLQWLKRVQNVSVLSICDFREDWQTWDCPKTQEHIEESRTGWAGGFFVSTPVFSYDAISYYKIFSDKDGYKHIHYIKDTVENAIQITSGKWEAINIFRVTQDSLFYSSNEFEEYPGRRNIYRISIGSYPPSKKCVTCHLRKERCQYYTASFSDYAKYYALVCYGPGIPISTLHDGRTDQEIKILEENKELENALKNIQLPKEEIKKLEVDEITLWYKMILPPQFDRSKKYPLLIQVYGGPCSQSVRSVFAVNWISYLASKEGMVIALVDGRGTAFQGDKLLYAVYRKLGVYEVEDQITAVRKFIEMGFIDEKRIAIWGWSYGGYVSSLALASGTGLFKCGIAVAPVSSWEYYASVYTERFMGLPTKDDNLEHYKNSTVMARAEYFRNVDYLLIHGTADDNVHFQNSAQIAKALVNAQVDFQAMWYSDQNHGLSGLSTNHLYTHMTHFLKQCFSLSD
As to the kind of experiment: Cell binding experiment in HT1080-FAP tumor cells (FIG. 11B). Conditions: cell experiment of HT1080-FAP.

Another assay deals with HT1080-FAP tumor cells. The assay is described as follows: Cell uptake and blocking experiment in HT1080-FAP tumor cells. In kind it is cell-based. Conditions: blocking experiment.

Consider `N#C[C@@H]1CCCN1C(=O)CNC(=O)c1ccnc2ccc(OCCCN3CCN(C(=O)CCOCCOCCNC(=O)[C@H](CCC(=O)NCCOCCOCCC(=O)NCCCC[C@@H]4NC(=O)[C@@H](Cc5ccccc5)NC(=O)[C@H](CC(=O)O)NC(=O)CNC(=O)[C@H](CCCNC(=N)N)NC4=O)NC(=O)CN4CCN(CC(=O)O)CCN(CC(=O)O)CC4)CC3)cc12` [68Ga-FAPI-RGD, metal not drawn], for which the IC50 on FAP worked out at 0.0112 µM.
For `N#C[C@@H]1CCCN1C(=O)CNC(=O)c1ccnc2ccc(OCCCN3CCN(C(=O)CN4CCN(CC(=O)O)CCN(CC(=O)O)CCN(CC(=O)O)CC4)CC3)cc12` [FAPI-02], the “blocking of the cell uptake of 68Ga-FAPI-RGD” value in the assay with HT1080-FAP tumor cells is listed as “partially inhibited”.
With C(RGDfK), the “blocking of the cell uptake of 68Ga-FAPI-RGD” value in the assay on HT1080-FAP tumor cells was “partially inhibited”.
